Laboratory results from patent publication US20250032624A1, “SMALL MOLECULE DEGRADATION METHODS FOR TREATING ALS/FTD” (University of Florida Research Foundation, Incorporated, priority 2021, published 2025).

Legend:
[1] = test system: RAN translation, poly(GP); experiment: poly(GP) abundance by electroluminescent sandwich immunoassay in c9ALS/FTD patient-derived LCLs; format: cell-based, human; details: 500 nM
Description: Meso Scale Discovery (MSD) Technology utilizes electrochemiluminescence to detect biomarkers, such as poly(GP), in protein samples. All cells were seeded in 6-well plates. LCLs were seeded in 2 mL of RPMI at 1×10^6 cells/mL and treated with compound for 4 days without media changes; patient-derived iPSCs were seeded at ˜80% confluency and treated as described above; patient-derived iPSNs began compound treatment on Day 15 of the differentiation process as previously described. Compounds were diluted to 0.1% DMSO final concentration in medium. […] Protein samples were quantified using a Pierce™ Micro BCA Protein Assay Kit (Thermo Scientific).
Poly(GP) levels were measured by an electrochemical luminescent sandwich immunoassay. […]
Following incubation wells were washed three times in 1×TBST (Tris-buffered saline containing 0.1% (v/v) Tween-20) and blocked with a 3% (w/v) BSA solution in 1×TBST for 1 hour with shaking at room temperature. […] After incubation, the wells were washed three times with 1×TBST and 150 μL of 1×MSD GOLD Read Buffer (MSD Technology) was applied to the wells immediately before reading the plate. The plate was read using a SECTOR Imager (MSD Technology).

[2] = test system: RAN translation of r(G4C2)66; experiment: RAN translation assay in transfected HEK293T cells; format: cell-based; details: read-out: IC50 of GFP signal (RAN translation)
Description: FIG. 8A is a schematic of co-transfection of a No ATG-d(G4C2)66-GFP (SEQ ID NO: 45) plasmid and an ATG-mCherry plasmid into HEK293T cells allows for RAN translation to be measured based on the GFP signal. The mCherry signal measures canonical translation. […] Error bars represent SD.
HEK293T cells were cultured according to the methods described above. After reaching ˜80% confluency, HEK293T cells were batch-transfected, according to the manufacturer's protocol, in 100 mm dishes using the Lipofectamine 3000 transfection system (Thermo Fischer) for 5 hours with […] of a plasmid encoding r(G4C2)66-no ATG-nano-luciferase and 1 μg of a plasmid encoding SV40-Firefly luciferase (Life Technologies). Cells were seeded into a 384-well plate and incubated overnight. Compounds were treated in <0.1% DMSO final concentration for 24 hours. RAN and canonical translation were measured using a Dual-Luciferase® Reporter Assay System (Promega) following the manufacturer's protocol. Experiments were performed as biological triplicates (n=3). […] in untransfected cells were measured to determine the background signal.

[3] = test system: r(G4C2)^exp-containing C9orf72 transcript; experiment: C9orf72 transcript RT-qPCR in c9ALS/FTD iPSNs; format: cell-based, human
Description: Differentiated motor neurons (iPSNs) were derived from the iPSCs listed in the previous section. The differentiation process was based on a previously reported method with slight modifications^33,34. Briefly, iPSCs were plated into Matrigel-coated 100 mm dishes (30-40% confluence). Neuroepithelial induction was performed by replacing the Basal medium with Stage 1 medium [47.5% IMDM (Iscove's Modified Dulbecco's Medium), 47.5% F12 medium, 1% NEAA (Non-Essential Amino Acids) (Life Technologies), 2% B27 (Invitrogen), 1% N2 (Invitrogen), 1% PSA (Penicillin-Streptomycin-Amphotericin), 0.2 μM LDN193189 (Stemgent), 10 μM SB431542 (STEMCELL Technologies) and 3 μM CHIR99021 (Sigma-Aldrich)]. The medium was changed daily for 6 days, after which cells were detached from plates using Accutase (STEMCELL Technologies). Cells were seeded into 6-well plates (1.5×10^6 cells/well) in 3 mL of Stage 2 medium [Stage 1 medium supplemented with 0.1 μM All-trans RA (Sigma-Aldrich) and 1 μM SAG (Cayman Chemicals)]. Cells were maintained in Stage 2 medium, with daily medium changes, through Day 11 of the differentiation process. On Day 12, the Stage 2 cell medium was removed and replaced with Stage 3 medium [47.5% IMDM, 47.5% F12 medium, 1% NEAA, 2% B27, 1% N2, 1% PSA, 0.1 μM Compound E (Millipore; Catalog #: 565790), 2.5 μM DAPT (Sigma-Aldrich), 0.1 μM db-cAMP (Millipore), 0.5 μM All-trans RA, 0.1 μM SAG, 20 ng/mL ascorbic acid, 10 ng/mL BDNF (STEMCELL Technologies), and 10 ng/mL GDNF (STEMCELL Technologies)]. This medium was replaced every three days until the end of the differentiation process. Typically, a minimum of 18 days is required to produce immature differentiated motor neurons; 30 days of differentiation is the standard for producing mature differentiated spinal neurons. The cells can be maintained in medium for an additional 14-28 days after reaching maturation. […]
For iPSNs cells were differentiated, following the protocol outlined above, until Day 15. […] RNA was extracted as described above and the expression levels of C9orf72 variants was determined by RT-qPCR and normalized to GAPDH. […]

`CCOC(=O)C1=C(Nc2ccccc2)S/C(=C\c2ccc(OCCOCCOCCOCCNC(=O)CCCOc3ccc4c(c3)c3cc5c(C(=O)N[C@H](C)CN(C)C)nccc5c(C)c3n4C)c(O)c2)C1=O` [ALS Compound Formula I] was tested, and the “reduction of poly(GP) abundance” value [1] was roughly 50%, the IC50 [2] was roughly 500 nM and the “exon 1b transcript abundance” value [3] was “unaffected”. For the same molecule, the “decrease in C9orf72 exon 2-3 abundance” value ([3]; 500 nM) was roughly 40% and the “decrease in C9orf72 intron 1 levels” value ([3]; 500 nM) was roughly 50%.
